Earlier results in publication PMC13472183 (Journal of drug delivery science and technology, 2022).

Settings: previous reported value, without the EDA modification

Tm (triple helix melting temperature): 50 °C
Substance: NH2-(VPGFG)6G-(GPO)7GG-CONH2 [F6-GPO7]
